From patent US9199914B2, “Multiple substituted fluoromethanes as selective and bioactive isosteres” (MEH ASSOCIATES, INC., priority 2010, dated 2015) come the findings set out here.

Type in all cases: cell-based
Experiment [1] relates to L-6 (rat skeletal myoblast cells). The experiment can be described thus: cells.
The subject of experiment [2] is Trypanosoma brucei rhodesiense; STIB 900. Put plainly: microbe, parasite or virus in culture.
Experiment [3] concerns T. cruzi Tulahuen C2C4, containing the Lac Z gene. Put plainly: In vitro sensitivity assay: T. cruzi (Lac Z / CPRG, in L-6 cells). The note with it: Trypanosoma cruzi, L6; Tulahuen C4, amastigotes in L-6 cells.
Experiment [4] relates to L. donovani MHOM-ET-67/L82, axenic amastigotes. Put plainly: In vitro sensitivity assay: axenic Leishmania donovani (Resazurin). A general note: The colour change of resazurin is a common sign of viable cells or microbes.
A further experiment concerns Plasmodium falciparum K1. The experiment can be described thus: microbe, parasite or virus in culture.
The mark [5] stands for this setting: MHOM-ET-67/L82, amastigotes, 72 hours, read-out: IC50 Values L. donovani.

≈ marks a conversion by molar mass, not a printed value. Read-outs that look alike come from different tables or passages of the source. A value given as a limit tells only on which side of the number the result lay.

As usually defined, the IC50 is the point on the concentration scale where inhibition reaches its midpoint. For `O=C(O)CNCCC(F)(F)F` [MEH-002, (3,3,3-Trifluoro-propylamino)-acetic acid], the IC50 is over 90 mg/L in experiment [1] (L6 cells, read-out: IC50 Values Cytoxicity); 10.3 mg/L (≈ 60.2 µM) in experiment [2] (STIB 900, trypomastigotes, 72 h, read-out: IC50 Values T.b. rhodensiense); over 90 mg/L in experiment [3]; over 90 mg/L in experiment [4] (setting [5]); over 5 mg/L in the experiment with Plasmodium falciparum K1 (K1, IEF, read-out: IC50 Values P. falciparum).

Turning to `CCN(CC)CCCC(C)Nc1ccnc2cc(Cl)ccc12` (stereo not shown) [chloroquinine, Chloroquine], the IC50 was determined as 0.059 mg/L (≈ 0.184 µM) in the experiment with Plasmodium falciparum K1 (K1, read-out: IC50 Values P. falciparum) and 0.065 mg/L (≈ 0.203 µM) with Plasmodium falciparum K1 (K1, read-out: average IC50).

In the case of `Nc1nc(N)nc(Nc2ccc([As]3SCC(CO)S3)cc2)n1` (stereo not shown) [melarsoprol], the IC50 turned out to be 0.003 mg/L in experiment [2] (72 h, read-out: IC50 Values T.b. rhodensiense) and 0.004 mg/L in experiment [2] (read-out: average IC50).

As to `CCCCCCCCCCCCCCCCOP(=O)([O-])OCC[N+](C)(C)C` [miltefosine], the IC50 in experiment [4] (setting [5]) came out at 0.178 mg/L (≈ 0.437 µM); in experiment [4] (standard drug, protocol value, read-out: average IC50), 0.131 mg/L (≈ 0.321 µM).

`COc1cc([C@@H]2c3cc4c(cc3[C@H](O)[C@H]3COC(=O)[C@H]23)OCO4)cc(OC)c1OC` [podophyllotoxin]: the IC50 in experiment [1] (L6, read-out: IC50 Values Cytoxicity) is 0.007 mg/L (≈ 0.0169 µM); in experiment [1] (Myoblast, read-out: average IC50), 0.006 mg/L (≈ 0.0145 µM).
